Laboratory results reported in patent US10933074B2, “Methods for improving the gastrointestinal tolerance of food and beverage products comprising sweet, low-digestible carbohydrates” (Tate & Lyle Ingredients Americas LLC, priority 2015, dated 2021).

System: volunteers
Design: species or system human
Details: in vivo
Description: In this Example, subjects tested 4 different beverages, consumed in the morning with at least one week washout between test days. The beverages were consumed on an empty stomach, and there was instruction for subjects to wait 2 hours before having any other food. The primary outcome was the total gastrointestinal symptom scores over 24-hours for loose stool GI symptom derived from a GI symptoms rating diary. The 4 test beverages (8 oz./236.6 ml) were flavoured with a strawberry mix and contained: 1) 25 g of D-allulose; 2) 25 g of D-allulose and 25 g of D-glucose; 3) 25 g of D-allulose and 1 g of beta-glucan fiber; or 4) 25 g of sucrose. […] On the day of the test, the subjects followed the below set of instructions: • 1. Testing start times begin when you start consuming the drink; record date and time you begin on the diary. • 2. Consume the test drink at the same time each week. • a. Consume the entire drink 8 oz. (236.6 ml) drink in under 15 minutes. • b. Refill the drink container with water and consume as a chaser. • c. You may have additional water after 60 minutes as desired. • 3. Record GI symptom scores at 2, 4 and 24-hours after starting drink consumption. • 4. You may eat a snack or breakfast 2 hours after the test drink. • 5. Record all bowel movements and the Bristol Stool type during the 24-hour observation period. • 6. Resume normal food consumption for the day; however avoid foods which you know may cause gastric upset or gas for the 24-hour observation period. […] The Bristol Stool test scores were scored from 1-7. […]

number of people reporting symptoms: greatest | stool softening (Bristol Stool test score, 24 hour average): softening effect
SMILES: O=C(CO)[C@H](O)[C@H](O)[C@H](O)CO [D-allulose]
order of softer stools: allulose>allulose+beta-glucan>allulose+D-glucose>sucrose
